Patent US5462926A (Biomeasure, Inc., priority 1993, dated 1995)
Where two headings read alike, the source gives them in different places. Where a SMILES comes first, the peptide text is derived from it. Bridges are numbered along the chain shown (N, C = ends). [ ]: non-standard residue; d: D form. 2Nal = N[C@@H](Cc1ccc2ccccc2c1)C(=O)O; d2Nal = N[C@H](Cc1ccc2ccccc2c1)C(=O)O; Lys(Et2) = CCN(CC)CCCC[C@H](N)C(=O)O

Assays:
GRP receptor = GRP receptor (Rattus norvegicus, UniProt P52500); experiment: Amylase release from rat pancreatic acini (alone or Bn-stimulated); format: cell-based; parameters: from tissue; host or cells: dispersed pancreatic acini; details: for Amylase Release, analog Alone (10 μM): analog 10 μM alone, control 4 ± 1; for Amylase Release, analog Plus Bn (0.3 nM): analog 10 μM plus Bn 0.3 nM, Bn without analog 15 ± 1
GRP receptor, sequence (P52500 whole entry): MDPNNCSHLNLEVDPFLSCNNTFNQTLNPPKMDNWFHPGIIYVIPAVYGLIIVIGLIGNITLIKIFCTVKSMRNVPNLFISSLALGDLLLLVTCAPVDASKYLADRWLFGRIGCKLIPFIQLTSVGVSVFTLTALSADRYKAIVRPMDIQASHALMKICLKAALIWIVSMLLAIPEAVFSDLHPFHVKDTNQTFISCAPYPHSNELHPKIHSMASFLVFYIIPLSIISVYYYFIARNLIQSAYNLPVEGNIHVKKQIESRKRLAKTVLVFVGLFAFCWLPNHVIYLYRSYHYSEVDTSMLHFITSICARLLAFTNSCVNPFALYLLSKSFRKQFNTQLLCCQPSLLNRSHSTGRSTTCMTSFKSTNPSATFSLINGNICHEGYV
Method: pancreatic acini or [^3 H]myo[2H]inositolloaded NMBR transfected cell
were incubated either with no additives, the somatostatin octapeptide
analog, Bn, or NMB, or a combination for 30 min at 37° C.. Amylase
release from pancreatic acini was expressed at the indicated percent of
the total cellular amylase released during the incubation. [^3 H]IP i
expressed in dpm's. To test for inhibitory effects, the effect of
somatostatin analog (10 μM) was determined on 0.3 nM Bnstimulated

rat NMB receptor = target: T1, rat NMB receptor (Rattus norvegicus, UniProt P24053); experiment: Binding of 125I-[D-Tyr0]NMB to NMB-R transfected BALB 3T3 cells; details: for fold decrease in NMB receptor affinity compared with cyclo SS-octa (#1): structure-function comparison from Table 1
T1 construct: a full length NMB-preferring bombesin receptor clone generated from rat esophagus; expressed in transfected cells
T1 sequence (P24053 1-390): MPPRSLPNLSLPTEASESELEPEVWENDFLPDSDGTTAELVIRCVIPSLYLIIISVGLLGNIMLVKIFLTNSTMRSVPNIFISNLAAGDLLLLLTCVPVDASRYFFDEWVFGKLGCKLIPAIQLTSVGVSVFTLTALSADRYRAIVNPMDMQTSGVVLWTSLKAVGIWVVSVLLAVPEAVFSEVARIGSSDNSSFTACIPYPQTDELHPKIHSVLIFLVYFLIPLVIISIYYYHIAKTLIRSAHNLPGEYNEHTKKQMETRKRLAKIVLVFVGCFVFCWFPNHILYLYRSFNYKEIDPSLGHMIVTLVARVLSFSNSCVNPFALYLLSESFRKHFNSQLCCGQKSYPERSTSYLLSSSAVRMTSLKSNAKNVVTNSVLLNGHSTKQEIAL
Method: (§1) Cells were passaged every 3-4 days at confluence, using 0.1% trypsin in 1 mM EDTA. Rat glioblastoma C-6 tumor cells were maintained similarly and were passaged weekly at confluence. Both cell lines were cultured at 37° C. in a 5% CO2 atmosphere. Rat AR 42J pancreatic acinar cells were cultured in Dulbecco's modified Eagle's medium (DMEM) without antibiotics and supplemented with 10% (vol/vol) fetal calf serum. The incubation atmosphere consisted of 10% CO2 -90% humidified air at 37° C.

NMB receptor = target: T2, NMB receptor (Rattus norvegicus, UniProt P24053); experiment: [3H]inositol phosphates in NMB-R transfected cells (alone or NMB-stimulated); format: cell-based; parameters: a full length NMB-preferring bombesin receptor clone generated from rat esophagus; expressed in transfected cells; details: NMB-R transfected cells; for effect at 10 μM on NMB-stimulated increase in [3H]IP / IC50: 3 nM NMB; for [3H]IP, analog Alone (10 μM): analog 10 μM alone, control 13 ± 3; for [3H]IP, analog Plus NMB (3 nM): analog 10 μM plus NMB 3 nM, NMB without analog 186 ± 58
T2 sequence (P24053 1-390): T1 sequence (P24053 1-390)
Method: as §1, with “As described previously [Wada, E., et al. Neuron 6:421 (1991)], BALB 3T3 cells expressing a stably transfected rat NMB receptor (NMB-R transfected cells) were obtained using calcium phosphate precipitation of a full length NMB-preferring bombesin receptor clone generated from rat esophagus and subcloned into a modified version of the pCD2 plasmid. Cells” for “Cells”
Measurement of phosphoinositides
Total phosphoinositides in C-6 cells and in NMB-R transfected cells were determined as described previously, with minor modifications [Benya, R. V. et al. Mol. Pharmacol. 42:1058 (1992); and Wang, L-H. et al. Biochem. Jo 286:641 (1992)]. Cells were grown to confluence in 24-well plates and then loaded with 100 μCi/ml myo-[2-^3 H]inositol in Dulbecco's modified essential medium with 2% fetal bovine serum at 37° C. for 48 hrs. Cells were washed and incubated in phosphoinositide buffer (standard buffer additionally containing 10 mM LiCl, 20 mM HEPES, 2 mM CaCl2, 2% BSA, and 1.2 mM MgSO4) for 15 min and then for 60 min at 37° C. with agonists at various concentrations or with 3 nM NMB (a half-maximal effective concentration) and possible antagonists at different concentrations. Reactions were halted using ice-cold 1% HCl in methanol, and the inositol phosphates (IP) were isolated as described previously [Bologna, M. et al. Cancer 63:1714 (1989); and Endo, T. et al. J. Endocrinolo 131:313 (1991)]. Briefly, after loading of the anion exchange column, free [^3 H]glycerophosphorylinositol was removed by washing with 5 mM disodium tetraborate in 60 mM sodium formate. Total [^3 H]inositol phosphates were then eluted using 100 mM formic acid in 1.0M ammonium formate as described previously [Benya, R. V. et al. Mol. Pharmacol. 42:1058 (1992); and Wang, L-H. et al. Biochem. J. 286:641 (1992 )].

[1] = target: T3, NMB receptors on C-6 cells (Rattus norvegicus, UniProt P24053); experiment: Binding of 125I-[D-Tyr0]NMB to C-6 glioblastoma cells; details: Ki by Cheng method, read-out: Ki 125I-NMB Binding, NMB Receptor, C-6 Cells
T3 construct: endogenous in cells; host or cells: rat glioblastoma C-6 cells
T3 sequence (P24053 1-390): T1 sequence (P24053 1-390)
Method: Binding of ^125 I-[D-Tyr^0 ]NMB to C-6 glioblastoma and NMB-R transfected cells
Binding studies using rat glioblastoma C-6 or NMB-R transfected cells were performed as described previously [Benya, R. V. et al. Mol. Pharmacol. 42:1058 (1992); and Wang, L-H. et al. Biochem. J. 286:641 (1992)] by suspending disaggregated cells in binding buffer, which was composed of standing buffer ([…], 7.7 mM KCl, 1.0 mM EGTA, 0.02% soybean trypsin inhibitor) additionally containing 50 mM HEPES, 1 mM MgCl2, 1.5 mM CaCl2, 2.2 mM KH2 PO4, 0,015% glutamine, and 0.2% BSA (w/v) (pH 7.4). Incubations contained 75 pM ^125 I-[D-Tyr^0 ]NMB and 15×10^6 C-6 cells/ml or 2×10^6 NMB-R transfected cells/ml, for 60 min at 22° C. Nonsaturable binding of ^125 I-[D-Tyr^0 ]NMB was the amount of radioactivity associated with C-6 cells or NMB-R transfected cells when the incubation mixture contained […] NMB. Nonsaturable binding was<15% of total binding in all experiments; all values are reported herein as saturable binding (i.e., total minus nonsaturable binding).

[2] = target: T4, GRP receptors on rat pancreatic acini (Rattus norvegicus, UniProt P52500); experiment: Binding of 125I-[Tyr4]bombesin to pancreatic acini; details: read-out: Ki 125I-[Tyr4]Bn Binding, GRP Receptor, Rat Pancreatic Acini; Ki by Cheng method
T4 construct: from tissue; host or cells: dispersed pancreatic acini
T4 sequence (P52500 whole entry): as the sequence (P52500 whole entry) above
Text: Nonsaturable binding was<10% of total binding in all experiments.

[3] = NMB-R transfected cells, value or range given for a group, read-out: K1, 125I-NMB binding to NMB-R transfected cells (text)
[4] = read-out: IC50 NMB-stimulated [3H]IP, Transfected Cells (values in μM)

| SMILES | Amylase Release, analog Alone (10 μM) (GRP receptor) [% total] | Amylase Release, analog Plus Bn (0.3 nM) (GRP receptor) [% total] | fold by which cyclo SS-octa is more potent than the analog, 125I-NMB binding (rat NMB receptor; NMB-R transfected cells) [fold] | fold decrease in NMB receptor affinity compared with cyclo SS-octa (#1) (rat NMB receptor) [fold] | effect at 10 μM on NMB-stimulated increase in [3H]IP (NMB receptor) | [3H]IP, analog Alone (10 μM) (NMB receptor) [dym × 10^3] | [3H]IP, analog Plus NMB (3 nM) (NMB receptor) [dym × 10^3] | Ki (rat NMB receptor; [3]) [µM] | Ki [1] [µM] | IC50 (NMB receptor; [4]) [µM] | IC50 (GRP receptor; read-out: IC50 Amylase Release, GRP Receptor, Rat Pancreatic Acini) [µM] | Ki (rat NMB receptor; NMB-R transfected BALB 3T3 cells, Ki by Cheng method, read-out: Ki 125I-NMB Binding, NMB Receptor, Transfected Cells) [µM] | IC50 (NMB receptor; read-out: IC50 NMB-stimulated [3H]IP, NMB Receptor, Transfected Cells) [µM] | Ki [2] [µM] |
| --- | --- | --- | --- | --- | --- | --- | --- | --- | --- | --- | --- | --- | --- | --- |
| CC(C)[C@@H]1NC(=O)[C@H](CCCCN)NC(=O)[C@@H](Cc2c[nH]c3ccccc23)NC(=O)[C@H](Cc2ccc(O)cc2)NC(=O)[C@@H](NC(=O)[C@H](N)Cc2ccc3ccccc3c2)CSSC[C@@H](C(=O)N[C@H](C(N)=O)[C@@H](C)O)NC1=O [Analog #5] | 3 ± 1 | 12 ± 1 | 69 | 80 | no effect | 11 ± 2 | 179 ± 13 | – | – | – | – | – | – | – |
| CC(C)[C@@H]1NC(=O)[C@H](CCCCN)NC(=O)[C@@H](Cc2c[nH]c3ccccc23)NC(=O)[C@H](Cc2ccc3ccccc3c2)NC(=O)[C@@H](NC(=O)[C@H](N)Cc2ccccc2)CSSC[C@@H](C(=O)N[C@H](C(N)=O)[C@@H](C)O)NC1=O [Analog #18] (H-[dF]C[2Nal][dW]KVCT-NH2; disulfide 2-7) | – | – | – | – | no effect | 11 ± 1 | 143 ± 11 | 14 to 19 | 8.32 ± 0.957 | > 10 | – | – | – | – |
| CCN(CC)CCCC[C@@H]1NC(=O)[C@@H](Cc2c[nH]c3ccccc23)NC(=O)[C@H](Cc2ccc(O)cc2)NC(=O)[C@@H](NC(=O)[C@H](N)Cc2ccccc2)CSSC[C@@H](C(=O)N[C@@H](Cc2ccc3ccccc3c2)C(N)=O)NC(=O)[C@H]([C@@H](C)O)NC1=O [Analog #16, H2 -D-Phe-Cys-Tyr-D-TrP-Lys(diEt)-Thr-Cys-Nal-NH2] (H-[dF]CY[dW][Lys(Et2)]TC[2Nal]-NH2; disulfide 2-7) | 5 ± 1 | 12 ± 1 | 18 | – | – | 11 ± 2 | 73 ± 15 | 3.9 to 4.4 | 1.09 ± 0.038 | 7.2 to 9.8 | > 10 | 3.95 ± 0.509 | 7.21 ± 2.79 | > 10 |
| CSCC[C@H](NC(=O)[C@H](C)NC(=O)[C@@H]1CCCN1C(=O)[C@H](CC(N)=O)NC(=O)[C@H](CO)NC(=O)[C@H](CC(N)=O)NC(=O)[C@H](C)NC(=O)[C@@H](N)CO)C(=O)N[C@@H](C)C(=O)N1CCC[C@H]1C(=O)N[C@@H](CCCNC(=N)N)C(=O)N[C@@H](CCC(=O)O)C(=O)N[C@@H](CCCNC(=N)N)C(=O)N[C@@H](CCCCN)C(=O)N[C@@H](C)C(=O)NCC(=O)N[C@H]1CSSC[C@@H](C(=O)O)NC(=O)[C@H](CO)NC(=O)[C@H]([C@@H](C)O)NC(=O)[C@H](Cc2ccccc2)NC(=O)[C@H]([C@@H](C)O)NC(=O)[C@H](CCCCN)NC(=O)[C@H](Cc2c[nH]c3ccccc23)NC(=O)[C@H](Cc2ccccc2)NC(=O)[C@H](Cc2ccccc2)NC(=O)[C@H](CC(N)=O)NC(=O)[C@H](CCCCN)NC1=O [SS-28, somatostatin-28, reference compound] | 4 ± 1 | 10 ± 1 | – | – | – | – | – | – | – | – | – | – | – | – |
| NCCCC[C@@H]1NC(=O)[C@@H](Cc2c[nH]c3ccccc23)NC(=O)[C@H](Cc2ccc(O)cc2)NC(=O)[C@@H](NC(=O)[C@H](N)Cc2ccc3ccccc3c2)CSSC[C@@H](C(=O)N[C@@H](Cc2ccc3ccccc3c2)C(N)=O)NC(=O)[C@H](Cc2ccc3ccccc3c2)NC1=O [Analog #3, H2 -D-Nal-Cys-Tyr-D-Trp-Lys-Nal-Cys-Nal-NH2] (H-[d2Nal]CY[dW]K[2Nal]C[2Nal]-NH2; disulfide 2-7) | 3 ± 1 | 15 ± 1 | – | 2 to 3 | – | 11 ± 1 | 65 ± 15 | – | – | – | – | – | – | – |
| C[C@H](N)C(=O)NCC(=O)N[C@H]1CSSC[C@@H](C(=O)O)NC(=O)[C@H](CO)NC(=O)[C@H]([C@@H](C)O)NC(=O)[C@H](Cc2ccccc2)NC(=O)[C@H]([C@@H](C)O)NC(=O)[C@H](CCCCN)NC(=O)[C@H](Cc2c[nH]c3ccccc23)NC(=O)[C@H](Cc2ccccc2)NC(=O)[C@H](Cc2ccccc2)NC(=O)[C@H](CC(N)=O)NC(=O)[C@H](CCCCN)NC1=O [SS-14, somatostatin-14, reference compound] | 3 ± 1 | 12 ± 1 | – | – | – | – | – | – | – | – | – | – | – | – |
